In patent US4603142A, “Cholesterol lowering method of use” (Wisconsin Alumni Research Foundation, priority 1984, dated 1986):

Key:
[1] = Serum lipids in 3-week-old broiler male chickens fed supplemented corn diet; assay type: in vivo, chicken; details: for Concentration in Serum Chol-LDL, percentage of control / Concentration in Serum Total Cholesterol, percentage of control / Concentration in Serum Chol-LDL / Concentration in Serum HDL-Chol. / Concentration in Serum Total Cholesterol: fed 3 weeks
Source text: (§1) These responses were attributed to the presence in the small grains of relatively high concentrations of beta-D-glucans and pentosans. A long-standing interest in lipid metabolism prompted us to examine certain lipogenic and cholesterolgenic enzymes in the tissues of these birds. Methods used for handling blood samples, preparing subcellular fractions of liver and assay procedures for beta-hydroxy-beta-methylglutaryl coenzyme A (HMG Co-A) reductase, fatty acid synthetase (FAS), plasma cholesterol and triglycerides and the statistical treatment of the data have been described [Qureshi AA et al. (1980): Regulation of lipid metabolism in chicken livers by dietary cereals, J Nutr 110:388-393].
For large scale preparation of these compounds, 10 grams of the petroleum ether soluble fraction of HPBF were dissolved in 10 ml petroleum ether and applied to a 90×3.5 cm silicic acid column (Bio-Silica, 100-200 mesh). The column was washed with 2,500 ml petroleum ether followed by stepwise elution with increasing amounts of ether in petroleum ether. Fraction 8 of the column corresponded to HPLC fraction 5. A concentration-dependent suppression of HMG Co-A reductase activity and enhancement of FAS activity was noted within this range. Serum total and LDL cholesterol levels also fell in a dose-dependent response. […] In a companion experiment, using the same control birds, the effect of cholesterol inhibitor I at 5 ppm is compared to the effect of the petroleum ether solubles of HPBF at 20% equivalent on weight gain, HMG Co-A reductase and FAS activities, serum cholesterol and serum triglyceride levels (Table 2). […] Serum triglyceride levels reflected the influence of the diet on FAS activity. […] Cholesterol inhibitor I was a more powerful suppressor of LDL cholesterol (Table 2).
^1 Feeding period was 3 weeks; Time of killing was 0800; Data
expressed as mean ± SD; N = 9 chickens per group; HMGCoA reductase =

[2] = target: T1, HMG-CoA reductase (Homo sapiens, UniProt P04035); test: HPLC fractions checked in vitro for suppression of HMG Co-A reductase in isolated hepatocytes; assay type: cell-based; design: suppress HMG Co-A reductase activity in isolated hepatocytes; endogenous in cells; host or cells: isolated hepatocytes; details: HPLC fractions of petroleum ether solubles
T1 sequence (P04035 1-888): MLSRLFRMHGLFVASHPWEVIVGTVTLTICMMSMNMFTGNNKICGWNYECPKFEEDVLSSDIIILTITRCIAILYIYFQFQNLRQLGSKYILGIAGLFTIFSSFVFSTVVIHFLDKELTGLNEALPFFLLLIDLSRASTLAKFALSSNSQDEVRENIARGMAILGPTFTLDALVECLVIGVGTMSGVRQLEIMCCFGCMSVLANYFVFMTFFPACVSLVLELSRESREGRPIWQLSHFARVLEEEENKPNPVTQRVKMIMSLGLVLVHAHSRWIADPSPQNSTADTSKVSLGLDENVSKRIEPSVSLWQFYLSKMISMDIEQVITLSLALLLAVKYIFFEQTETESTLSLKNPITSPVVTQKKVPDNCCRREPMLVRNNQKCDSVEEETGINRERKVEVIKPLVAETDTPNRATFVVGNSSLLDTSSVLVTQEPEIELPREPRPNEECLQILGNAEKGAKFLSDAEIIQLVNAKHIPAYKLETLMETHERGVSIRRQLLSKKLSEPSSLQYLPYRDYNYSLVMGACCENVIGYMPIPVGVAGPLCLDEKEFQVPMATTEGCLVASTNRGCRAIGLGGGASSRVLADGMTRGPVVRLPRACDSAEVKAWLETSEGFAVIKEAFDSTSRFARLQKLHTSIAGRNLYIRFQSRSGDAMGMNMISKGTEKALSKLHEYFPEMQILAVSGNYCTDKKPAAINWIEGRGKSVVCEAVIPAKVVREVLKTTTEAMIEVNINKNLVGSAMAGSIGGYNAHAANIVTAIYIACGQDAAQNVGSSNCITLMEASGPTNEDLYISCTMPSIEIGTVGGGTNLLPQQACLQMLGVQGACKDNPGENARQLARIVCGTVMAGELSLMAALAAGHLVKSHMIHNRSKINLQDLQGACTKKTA

[3] = target: T1, HMG-CoA reductase; test: Hepatic HMG-CoA reductase activity in 13-week-old WLH male chickens; assay type: in vivo, chicken; design: preparing subcellular fractions of liver and assay procedures for beta-hydroxy-beta-methylglutaryl coenzyme A (HMG Co-A) reductase; from tissue; host or cells: chicken liver (microsomal fraction); details: 20 ppm in corn diet, fed four weeks, liver
Source text: as §1
Cholesterol inhibitor I was re-chromatographed by HPLC and the UV absorption spectrum obtained. Maximum absorption occurred at 292 nm. This purified fraction was used for high resolution mass spectrometric analysis. Several scans were made using ionization temperatures from 90-180 degrees Centigrade to increase the possibility of detecting impurities. […] The results shown on Table 3 confirm those previously recorded for petroleum ether solubles of HPBF and cholestrol inhibitor I. In a final experiment, the effects of cholestrol inhibitor I and lemon grass oil on hepatocyte HMG Co-A reductase and FAS activities were tested. […]
expressed as mean ± SD; N = 8 chickens per group; HMGCoA reductase = […]

[4] = 2.5 ppm in corn diet, mean ± SD, N = 9
[5] = 5.0 ppm in corn diet, mean ± SD, N = 9
[6] = 10.0 ppm in corn diet, mean ± SD, N = 9
[7] = 15.0 ppm in corn diet, mean ± SD, N = 9
[8] = 20.0 ppm in corn diet, mean ± SD, N = 9
[9] = corn diet + 5 ppm (Table 2), mean ± SD, N = 9

With `CC(C)=CCC/C(C)=C/CC/C(C)=C/CC[C@]1(C)CCc2c(C)c(O)c(C)c(C)c2O1` [Cholesterol inhibitor I, 2,5,7,8-tetramethyl-2 (4,8, 12-trimethyltrideca-3,7, 11-trienyl)chroman-6-ol] the “Concentration in Serum Chol-LDL, percentage of control” value ([1]; 2.5 ppm in corn diet) was 90 Percentage of respective contr, the “Concentration in Serum Total Cholesterol, percentage of control” value ([1]; 2.5 ppm in corn diet) was 94 Percentage of respective contr and the “Concentration in Serum Chol-LDL” value [1, 4] was 73 ± 5 mg/100 ml. The “Concentration in Serum HDL-Chol.” value [1, 4] was 54 ± 6 mg/100 ml, the “Concentration in Serum Total Cholesterol” value [1, 4] was 152 ± 10 mg/100 ml and the “Level of cholesterol transported in the high-density lipoprotein fraction (HDL)” value ([1]; 2.5 to 20 ppm, Table 1) was “not influenced”. The “Concentration in Serum Chol-LDL, percentage of control” value ([1]; 5.0 ppm in corn diet) was 74 Percentage of respective contr, the “Concentration in Serum Total Cholesterol, percentage of control” value ([1]; 5.0 ppm in corn diet) was 89 Percentage of respective contr and the “Concentration in Serum Chol-LDL” value [1, 5] was 60 ± 4 mg/100 ml. The “Concentration in Serum HDL-Chol.” value [1, 5] was 51 ± 4 mg/100 ml, the “Concentration in Serum Total Cholesterol” value [1, 5] was 144 ± 8 mg/100 ml and the “Concentration in Serum Chol-LDL, percentage of control” value ([1]; 10.0 ppm in corn diet) was 67 Percentage of respective contr. The “Concentration in Serum Total Cholesterol, percentage of control” value ([1]; 10.0 ppm in corn diet) was 78 Percentage of respective contr, the “Concentration in Serum Chol-LDL” value [1, 6] was 54 ± 4 mg/100 ml and the “Concentration in Serum HDL-Chol.” value [1, 6] was 52 ± 5 mg/100 ml. For the same compound, the “Concentration in Serum Total Cholesterol” value [1, 6] was 125 ± 7 mg/100 ml, the “Concentration in Serum Chol-LDL, percentage of control” value ([1]; 15.0 ppm in corn diet) was 64 Percentage of respective contr and the “Concentration in Serum Total Cholesterol, percentage of control” value ([1]; 15.0 ppm in corn diet) was 76 Percentage of respective contr. The “Concentration in Serum Chol-LDL” value [1, 7] was 52 ± 5 mg/100 ml, the “Concentration in Serum HDL-Chol.” value [1, 7] was 50 ± 6 mg/100 ml and the “Concentration in Serum Total Cholesterol” value [1, 7] was 122 ± 6 mg/100 ml. The “Concentration in Serum Chol-LDL, percentage of control” value ([1]; 20.0 ppm in corn diet) was 47 Percentage of respective contr, the “Concentration in Serum Total Cholesterol, percentage of control” value ([1]; 20.0 ppm in corn diet) was 65 Percentage of respective contr and the “Concentration in Serum Chol-LDL” value [1, 8] was 38 ± 5 mg/100 ml. The “Concentration in Serum HDL-Chol.” value [1, 8] was 48 ± 5 mg/100 ml, the “Concentration in Serum Total Cholesterol” value [1, 8] was 105 ± 8 mg/100 ml and the “Serum Cholesterol HDL-Chol.” value [1, 9] was 48 ± 5 mg/dL. For the same compound, the “Serum Cholesterol LDL-Chol.” value [1, 9] was 38 ± 5 mg/dL, the “Serum Cholesterol Total-Chol.” value [1, 9] was 105 ± 11 mg/dL and the “Serum Triglycerides” value [1, 9] was 174 ± 6 mg/dL. The “Effect on HMG Co-A reductase in isolated hepatocytes” value [2] was “significant inhibition”, the “HMG-CoA Reductase, percentage of control” value [3] was 63 Percentage of respective contr and the “HMG-CoA Reductase” value ([3]; mean ± SD, N = 8) was 305 ± 18 pmoles of mevalonic acid synth.
